Here are results for one substance from patent publication US20250367230A1, “Method for preparing SAMe microcapsules” (XIAMEN KINGDOMWAY BIOTECH. CO., LTD., priority 2024, published 2025).

Data set [1] is described as follows: Determination of pH value of SAMe microcapsules. Type of data set: physicochemical. To be noted: 1 g of sample added to 100 g of water. The protocol: 1 g of each of the above samples was taken and added to 100 g of water, and the pH value was measured.
The subject of data set [2] is mouse gastrointestinal tract. Description: Effect on mouse gastrointestinal tract (indomethacin/ethanol ulcer model, gastric mucosal lesion area). Type of data set: in vivo, mice (C57). Conditions: mice, 5.0 g/kg·bw gavage once a day for 21 days, then indomethacin 10 mg/kg·bw i.p. and 60% ethanol gavage. From the text:
Experimental animals: Healthy adult mice (C57, purchased from Pabeile Experimental Animal Breeding Co., Ltd.), with body weight of 18 to 22 g.
Experimental materials: The test samples were SAMe microcapsules obtained from the formulas in Examples 1 to 5 and Comparative Examples 1 to 9, and SAMe raw material.
Experimental method: The designed dose (5.0 g/kg·bw) was equivalent to 5 times the recommended dosage for humans, and an ulcer model control group was set. Each group was gavaged with the test sample once a day, and the control group was fed with an equal volume of distilled water. After 21 consecutive days of feeding, the animals were fasted for 1 day. 0.5 h after the last gavage, the mice of each group were intraperitoneally injected with indomethacin suspension (purchased from Liaoyang Helin Pharmaceutical Co., Ltd.) (10 mg/kg·bw), and 1 h later, the mice were gavaged with 60% ethanol ([…]). After 1 h, the mice were killed by cervical dislocation, laparotomy and ligation of pylorus were carried out, and 1 mL of 1% formalin was orally gavaged. The cardia was immediately ligated and the entire stomach was cut off. After flushing the stomach contents, the stomach was spread on a glass plate. Under a shadowless magnifying lamp, the area of gastric mucosal lesions was measured and statistically analyzed.

In turn, “S-Adenosyl-L-methionine Disulfate Tosylate [SAMe raw material]” yielded a pH value in data set [1] of 1.3. In data set [2], the “Lesion area (gastric mucosal lesions)” value is listed as 11.57 ± 4.35 mm^2.
